In the CheMixHub ionic liquid set:

Test: xn = mol fraction of the nth substance listed

CCCC[n+]1ccn(C)c1.N#C[S-] + CCCCO
101 kPa
Details | viscosity [mPa·s]
298.15 K, x2 = 0.5596 | 11.2
298.15 K, x2 = 0.6222 | 9.23
298.15 K, x2 = 0.79 | 5.28
298.15 K, x2 = 0.9738 | 2.9
308.15 K, x2 = 0.6834 | 5.8
318.15 K, x2 = 0.0911 | 19
318.15 K, x2 = 0.5596 | 6.55
318.15 K, x2 = 0.6222 | 5.5
318.15 K, x2 = 0.6834 | 4.59
318.15 K, x2 = 0.9738 | 1.81
328.15 K, x2 = 0.4552 | 6.86
328.15 K, x2 = 0.6834 | 3.72
338.15 K, x2 = 0.5596 | 4.19
338.15 K, x2 = 0.6222 | 3.6
348.15 K, x2 = 0.3317 | 5.78
348.15 K, x2 = 0.8975 | 1.34
348.15 K, x2 = 0.9738 | 1

CC(=O)[O-].CC[n+]1ccn(C)c1 + CCS(=O)(=O)[O-].[NH4+]
101 kPa, x2 = 0
Details | electrical conductivity [S/m] | viscosity [mPa·s]
303.15 K | 0.374 | 93.6
318.15 K | 0.76 | 44.2

C[C@H](N)C(=O)[O-].C[N+](C)(C)CCO + O
Details | viscosity [mPa·s]
287.97 K, 100 kPa, x1 = 0.2939 | 177
288.1 K, 100 kPa, x1 = 1 | 5100
289.25 K, 100 kPa, x1 = 0.5975 | 970
289.31 K, 100 kPa, x1 = 0.692 | 1467
289.96 K, 100 kPa, x1 = 1 | 3700
290.48 K, 100 kPa, x1 = 0.2939 | 153
290.53 K, 100 kPa, x1 = 0.7994 | 1752
292.92 K, 100 kPa, x1 = 0.097 | 8.7
292.92 K, 100 kPa, x1 = 0.4948 | 490
292.92 K, 100 kPa, x1 = 0.5975 | 710
292.92 K, 100 kPa, x1 = 0.692 | 1030
294.1 K, 100 kPa, x1 = 0.097 | 8.4
294.1 K, 100 kPa, x1 = 0.4948 | 450
294.1 K, 100 kPa, x1 = 0.692 | 930
294.1 K, 100 kPa, x1 = 0.7994 | 1250
295.27 K, 100 kPa, x1 = 0.7994 | 1129
296.45 K, 100 kPa, x1 = 0.4948 | 377
296.45 K, 100 kPa, x1 = 0.7994 | 1016
297.63 K, 100 kPa, x1 = 0.097 | 7.4
298.1 K, 101.3 kPa, x1 = 0.2727 | 33
298.81 K, 100 kPa, x1 = 0.2939 | 90
298.81 K, 100 kPa, x1 = 0.7994 | 840
299.98 K, 100 kPa, x1 = 0.097 | 6.9
299.98 K, 100 kPa, x1 = 0.3748 | 156
300.27 K, 100 kPa, x1 = 1 | 1538
301.16 K, 100 kPa, x1 = 0.692 | 530
302.34 K, 100 kPa, x1 = 0.3748 | 135
303.51 K, 100 kPa, x1 = 0.3748 | 126
303.51 K, 100 kPa, x1 = 0.7994 | 580
304.72 K, 100 kPa, x1 = 1 | 1206
305.86 K, 100 kPa, x1 = 0.3748 | 109
305.86 K, 100 kPa, x1 = 0.4948 | 200
305.86 K, 100 kPa, x1 = 0.8993 | 680
307.04 K, 100 kPa, x1 = 0.3748 | 103
307.04 K, 100 kPa, x1 = 0.5975 | 254
307.04 K, 100 kPa, x1 = 0.8993 | 630
313 K, 101.3 kPa, x1 = 0.1233 | 5.7
323.2 K, 100 kPa, x1 = 1 | 337
333 K, 101.3 kPa, x1 = 0.05881 | 2.27

CCCCCCCCCCCC[P+](CC)(CC)CC.N#Cc1ccc[n-]1 + OCC(O)CO
100 kPa
Details | electrical conductivity, 293.15 K [S/m] | electrical conductivity, 303.15 K [S/m] | electrical conductivity, 313.15 K [S/m] | viscosity, 293.15 K [mPa·s] | viscosity, 298.15 K [mPa·s] | viscosity, 303.15 K [mPa·s] | viscosity, 313.15 K [mPa·s]
x1 = 0.001 | 0.0008 | 0.0015 | 0.0028 | – | – | – | –
x1 = 0.003 | 0.0025 | 0.0035 | 0.0061 | 1352 | 860 | 540 | 214
x1 = 0.005 | 0.0037 | 0.0051 | 0.0091 | – | – | – | –
x1 = 0.007 | 0.0052 | 0.0065 | 0.0116 | – | – | – | –
x1 = 0.01 | 0.0064 | 0.0076 | 0.0137 | 1415 | 910 | 573 | 230
x1 = 0.013 | 0.0076 | 0.0105 | 0.0192 | – | – | – | –
x1 = 0.016 | 0.0081 | 0.0125 | 0.0233 | – | – | – | –
x1 = 0.021 | 0.0086 | 0.0154 | 0.0287 | – | – | – | –
x1 = 0.026 | 0.0096 | 0.0166 | 0.0312 | 1652 | 1024 | 620 | 254
x1 = 0.032 | 0.0102 | 0.0186 | 0.0342 | – | – | – | –
x1 = 0.041 | 0.0111 | 0.0201 | 0.0368 | 2113 | 1316 | 790 | 321
x1 = 0.049 | 0.0122 | 0.0233 | 0.0429 | – | – | – | –
x1 = 0.056 | 0.0129 | 0.0252 | 0.0463 | 2377 | 1481 | 910 | 364
x1 = 0.094 | 0.014 | 0.0256 | 0.0475 | – | – | – | –
x1 = 0.139 | 0.012 | 0.0279 | 0.0522 | 2442 | 1568 | 1018 | 442
x1 = 0.196 | – | – | – | 2342 | 1501 | 960 | 423
x1 = 0.292 | 0.0092 | 0.0261 | 0.0495 | 1719 | 1114 | 730 | 336
x1 = 0.343 | 0.0092 | 0.0203 | 0.0398 | 1481 | 970 | 658 | 307
x1 = 0.426 | – | – | – | 1086 | 710 | 473 | 230
x1 = 0.481 | 0.0109 | 0.0206 | 0.0404 | – | – | – | –
x1 = 0.542 | – | – | – | 940 | 638 | 443 | 231
x1 = 0.677 | 0.0131 | 0.0239 | 0.0453 | 860 | 600 | 425 | 214
x1 = 0.815 | 0.0183 | 0.0357 | 0.0635 | 623 | 441 | 321 | 164
x1 = 1 | 0.0267 | 0.0448 | 0.0786 | 422 | 296 | 212 | 117

OCC(F)(F)F + CCCC[n+]1ccn(C)c1.O=S(=O)([N-]S(=O)(=O)C(F)(F)F)C(F)(F)F
101 kPa
Details | viscosity [mPa·s]
278.15 K, x1 = 0.2626 | 65.4
278.15 K, x1 = 0.4753 | 30.28
278.15 K, x1 = 0.6153 | 16.99
278.15 K, x1 = 0.7568 | 9.09
293.15 K, x1 = 0.6153 | 10.18
298.15 K, x1 = 0.2626 | 27.45
298.15 K, x1 = 0.7568 | 5.03
313.15 K, x1 = 0.4753 | 9.42
318.15 K, x1 = 0.4753 | 8.31
323.15 K, x1 = 1 | 1.02
333.15 K, x1 = 0.2626 | 9.76

CCCC[n+]1ccn(C)c1.N#C[N-]C#N + O=S(=O)([N-]S(=O)(=O)C(F)(F)F)C(F)(F)F.[Li+]
electrical conductivity [S/m], 101 kPa
Details | x1 = 0.8953 | x1 = 0.9103 | x1 = 0.942 | x1 = 0.9606 | x1 = 0.9799 | x1 = 1
288.15 K | – | 0.381 | 0.469 | 0.538 | 0.595 | 0.596
298.15 K | 0.519 | 0.613 | 0.743 | 0.848 | 0.919 | 0.925
333.15 K | 1.67 | 1.88 | 2.17 | 2.46 | 2.56 | 2.77

CCCC[N+](C)(CCCC)CCCC.[Cl-] + NC(N)=NCCC[C@H](N)C(=O)O + O
313.15 K, 101.3 kPa
Details | viscosity [mPa·s]
x2 = 0, x1 = 0.0007203 | 0.67
x2 = 0, x1 = 0.00144 | 0.7

C[N+](C)(CCO)Cc1ccccc1.[Cl-] + CC(=O)CCC(=O)O
101.33 kPa, x1 = 0.3333
Details | viscosity [mPa·s]
293.15 K | 2026
298.15 K | 1235
303.15 K | 785
308.15 K | 518
313.15 K | 353
318.15 K | 248
323.15 K | 179
328.15 K | 133
333.15 K | 101
338.15 K | 78
343.15 K | 61
348.15 K | 49
353.15 K | 40
